Source: patent US20250326715A1, “NOVEL MAIN PROTEASE INHIBITORS, AND COMPOSITIONS AND METHODS THEREOF” (University of Massachusetts, priority 2023, published 2025)

Columns and labels:
OC-43 = assay type: cell-based; conditions: A549-hACE2 cells
SARS-CoV-2 [1] = test: Antiviral activity in SARS-CoV-2-infected K18-hACE2 transgenic mice; assay type: in vivo; conditions: K18-ACE2 mice; for viral RNA loads and titers in lung tissue vs vehicle control: 72 h treatment; for inflammatory cytokines and chemokines (IFN-β, TNF-α, IL-1β, IL-6) in lung tissue: infected for 72 hours; for protection from SARS-CoV2-induced weight loss and lethality: intranasal 10 mg/kg once daily for 3 days starting 2 h prior to infection; for protection from SARS-CoV-2-induced weight loss and lethality: intraperitoneal 25 mg/kg twice daily for 5 days, post-infection; for histopathological analysis of lung tissue: treatment for 5 days
From the text: For these studies, K18-hACE2 transgenic mice (K18-ACE2) were used that express human ACE2 under the control of the epithelial cell cytokeratin-18 (K18) promoter as this model provides robust SARS-CoV-2 infection.
All animal experiments were approved by the Institutional Animal Care Use Committees at the University of Massachusetts Chan Medical School. Animal were kept in a specific pathogen free (SPF) environment. Hemizygous K18-hACE2 C57BL/6J mice (strain: […] (K18-ACE2)2Prlmn/J) were obtained from The Jackson Laboratory. 8-12-week-old male and female mice were anesthetized with isoflurane and infected intranasally with 3×10^4 PFU of SARS-CoV-2. […] Mice were monitored daily for weight loss and survival. Lung samples were collected at indicated time points and placed in a bead homogenizer tube with 1 ml of DMEM+2% FBS for homogenization, then 100 μl of this mixture was placed in PBS for tittering or in 300 μl Trizol LS (Invitrogen) for RNA extraction. For histology, lungs were perfused with 10 U/mL Heparin, intratracheally inflated with 10% buffered-formalin and dissected from mice. Tissues were fixed in 4% paraformaldehyde overnight and embedded in 10% paraffin. Five micrometer thin sections were stained by H&E. Histomorphology, grading of histology scores and evaluation of inflammation of each H&E slide was evaluated by Applied Pathology Systems.

[2] = mock-infected mice
M^Pro = M^Pro (Severe acute respiratory syndrome coronavirus 2, UniProt P0DTD1); assay type: binding
in vivo = conditions: male, C57Bl/6, mouse
Protocol: Pharmacokinetics were evaluated in male C57Bl/6 mice, approximately 25 g. Test compounds were formulated at 0.3 mg/mL for intravenous dosing and 1 mg/mL for oral gavage. Formulation concentrations reflect free-base concentrations. Formulations were prepared by dissolving in DMSO (20× stock) and mixing 1:1 with tween-80. Prior to dosing, the formulation was diluted with sterile saline. The final formulation was 5% DMSO, 5% tween-80, 90% saline (v:v:v). Mice (n=3) were dosed at 10 μL per gram body weight. […] A total of 25 μL blood was collected at each time point. The hematocrit tubes were sealed with a wax plug and held on ice until plasma could be isolated via centrifugation in a microcentrifuge fit with a hematocrit rotor.
Drug levels were determined from 5 μL plasma. Plasma was treated with 75 μL 90/10 acetonitrile/water containing Carbamazepine as an internal standard (IS). Samples were loaded to a 96-well Millipore Multiscreen Solvinter 0.45 micron low binding PTFE hydrophilic filter plate and the filtrate was directly analyzed. All plasma samples were treated with 75 μL 90/10 acetonitrile/water with Carbamazepine as internal standard (IS) to extract the analyte and precipitate protein. The plates were agitated on ice for approximately five minutes prior to centrifugation into a collection plate. Separate standard curves were prepared in blank mouse plasma and brain homogenate and processed in parallel with the samples. The filtrate was directly analyzed by LC-MS/MS.

[3] = Aqueous solubility (comparison in words)
SARS-CoV-2 [4] = assay type: cell-based; conditions: Huh7.5 cells, 2 μM, 24 h
A549-hACE2 cells = test: Cytotoxicity assay (LDH release); assay type: cell-based, human
Protocol: A549-hACE2 cells were treated with indicated doses of inhibitors for 24 hours. Then the media were collected for lactate dehydrogenase (LDH) assay.
Supernatant samples are transferred to a 96-well plate and an equal volume of CytoTox 96® Reagent is added to each well and incubated for 30 min.

CCOC(=O)C=CC(CC1CCNC1=O)NC(=O)C(Cc1ccccc1)NC(=O)C(Cc1ccc(F)cc1)NC(=O)OC(C)(C)C (stereo not shown) [SM142]
inhibition of OC-43, in words (OC-43): inhibit OC-43
viral RNA loads and titers in lung tissue vs vehicle control (SARS-CoV-2 [1]): remarkably lower
inflammatory cytokines and chemokines (IFN-β, TNF-α, IL-1β, IL-6) in lung tissue (SARS-CoV-2 [1]): Reduced inflammatory cytokines and chemokines were detected
protection from SARS-CoV2-induced weight loss and lethality (SARS-CoV-2 [1]): protects mice from SARS-CoV2-induced weight loss and lethality
protection from SARS-CoV-2-induced weight loss and lethality (SARS-CoV-2 [1]): protects K18-ACE2 mice from SARS-CoV-2-induced weight loss and lethality
histopathological analysis of lung tissue (SARS-CoV-2 [1]): significant reduction in lung inflammation and improved overall lung pathology
weight loss in uninfected mice [2]: no significant weight loss in the uninfected mice

CCOC(=O)C=CC(CC1CCNC1=O)NC(=O)C(Cc1ccccc1)NC(=O)C(N)Cc1ccccc1 (stereo not shown) [SM141]
inhibition of SM144 labeling of recombinant M^Pro (M^Pro; 0-50 μM competitor, 5 μM SM144): competitively inhibited
inhibition of OC-43, in words (OC-43): inhibit OC-43
AUC(0-inf) (in vivo; ip): 827 ng·h/mL
AUC(0-t) (in vivo; ip): 1.6 µM·h
Cmax (in vivo; ip): 2.7 µM
Tmax (in vivo; ip): 8.4 min
bioavailability (in vivo; ip): 35.2%
half-life (in vivo; ip): 48 min
AUC(0-inf) (in vivo; iv): 706 ng·h/mL
AUC(0-t) (in vivo; iv): 1.3 µM·h
Cmax (in vivo; iv): 3.9 µM
MRT inf (in vivo; iv): 24 min
Tmax (in vivo; iv): 4.8 min
Vd (in vivo; iv): 1.6 L/kg
half-life (in vivo; iv): 48 min
viral RNA loads and titers in lung tissue vs vehicle control (SARS-CoV-2 [1]): remarkably lower
inflammatory cytokines and chemokines (IFN-β, TNF-α, IL-1β, IL-6) in lung tissue (SARS-CoV-2 [1]): Reduced inflammatory cytokines and chemokines were detected
protection from SARS-CoV2-induced weight loss and lethality (SARS-CoV-2 [1]): protects mice from SARS-CoV2-induced weight loss and lethality
protection from SARS-CoV-2-induced weight loss and lethality (SARS-CoV-2 [1]): protects K18-ACE2 mice from SARS-CoV-2-induced weight loss and lethality
in vivo antiviral efficacy, SM141 compared with SM142 (SARS-CoV-2 [1]; survival): better antiviral efficacy
histopathological analysis of lung tissue (SARS-CoV-2 [1]): significant reduction in lung inflammation and improved overall lung pathology
aqueous solubility, in words [3]: more aqueous solubility than SM142
antiviral activity, in words (SARS-CoV-2 [4]): almost completely blocks viral infection
concentration up to which no notable cytotoxicity is caused (A549-hACE2 cells; A549-hACE2 cells, 24 h, LDH): > 50 µM
cytoxcity (A549-hACE2 cells; Table 2): >100 µM
weight loss in uninfected mice [2]: no significant weight loss in the uninfected mice

C#CCOCCC(=O)NC(Cc1ccc(F)cc1)C(=O)NC(Cc1ccccc1)C(=O)NC(C=CC(=O)OCC)CC1CCNC1=O (stereo not shown) [SM144]
limit of detection of M^Pro by the probe (M^Pro; 5 μM SM144, TAMRA-azide, in-gel fluorescence): 5 pmol
